The text below walks through data of PMC3566787, “Efficient synthesis of phenylene-ethynylene rods and their use as rigid spacers in divalent inhibitors” (Beilstein Journal of Organic Chemistry, 2013).

The target of the assay is T1, LecA (Pseudomonas aeruginosa, UniProt Q05097).
T1 construct: FITC-labeled LecA
Kind of assay: ELISA-type competition assay on a glycochip: inhibition of FITC-labeled LecA binding to a galactoside-functionalized surface.

T1 sequence (Q05097 2-122): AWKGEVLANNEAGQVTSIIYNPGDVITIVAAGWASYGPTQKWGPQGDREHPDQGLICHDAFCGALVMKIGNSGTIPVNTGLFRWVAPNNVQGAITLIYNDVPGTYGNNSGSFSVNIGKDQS

Molecule `COCCOCCOc1cc(C#Cc2cc(OCCOCCOC)c(-c3cn(CCCO[C@@H]4O[C@H](CO)[C@H](O)[C@H](O)[C@H]4O)nn3)cc2OCCOCCOC)c(OCCOCCOC)cc1C#Cc1cc(OCCOCCOC)c(-c2cn(CCCO[C@@H]3O[C@H](CO)[C@H](O)[C@H](O)[C@H]3O)nn2)cc1OCCOCCOC` [compound 22, divalent ligand 22] came in with a half-maximal inhibitory concentration (IC50) of 900 nM.
